Source: US8952024B2, “Herbicidal pyrimidone derivatives” (E I du Pont de Nemours and Company, priority 2009, dated 2015)

What was measured:
Assay in all cases: Test B pre-/postemergence plant response
Format in all cases: in vivo
[1] = tested on: goosegrass (Eleusine indica); settings: Preemergence, 62 g ai/ha; scale 0 to 100, 0 no effect, 100 complete control
[2] = tested on: large crabgrass (Digitaria sanguinalis)
In short: (§1)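 Visual injury, 0–100 scale (100 = complete control), rated against controls after 13 to 15 days in greenhouse. Pre-emergence: seeds in loam/sand soil, treated at planting. Post-emergence: 1- to 4-leaf plants (2 to 18 cm) in peat/vermiculite medium. Compounds formulated in non-phytotoxic solvent with surfactant.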

[3] = tested on: Surinam grass (Brachiaria decumbens)
In short: as §1

[4] = tested on: yellow nutsedge (Cyperus esculentus)
In short: as §1

[5] = tested on: galium (catchweed bedstraw, Galium aparine); settings: Preemergence
In short: as §1

[6] = tested on: cocklebur (Xanthium strumarium)
In short: as §1

[7] = tested on: lambsquarters (Chenopodium album)
In short: as §1

[8] = tested on: sunflower (common oilseed sunflower, Helianthus annuus); settings: Preemergence
In short: as §1

kochia (Kochia scoparia) = tested on: kochia (Kochia scoparia)
In short: as §1

wild oat (Avena fatua) = tested on: wild oat (Avena fatua)
In short: as §1

[9] = tested on: nightshade (eastern black nightshade, Solanum ptycanthum); settings: Preemergence
In short: as §1

[10] = tested on: woolly cupgrass (Eriochloa villosa)
In short: as §1

[11] = 250 g ai/ha, Preemergence, 0 to 100 scale
[12] = Postemergence, 31 g ai/ha, scale 0 to 100 (0 no effect, 100 complete control)
[13] = Postemergence, 62 g ai/ha, scale 0 (no effect) to 100 (complete control), 13 to 15 days
[14] = Postemergence, 125 g ai/ha, visual rating after 13 to 15 days, scale 0 (no effect) to 100 (complete control)
[15] = Postemergence, 250 g ai/ha, scale 0 to 100
[16] = Preemergence, 31 g ai/ha, scale 0 to 100 (0 no effect, 100 complete control)
[17] = Preemergence, 62 g ai/ha, scale 0 to 100, 0 no effect, 100 complete control
[18] = Preemergence, 125 g ai/ha, 0 to 100 scale
[19] = 31 g ai/ha, scale 0 to 100 (0 no effect, 100 complete control)
[20] = 62 g ai/ha, scale 0 to 100, 0 no effect, 100 complete control

5-[(1-ethyl-5-hydroxy-1H-pyrazol-4-yl)carbonyl]-2-phenyl-3-(phenylmethyl)-4(3H)-pyrimidinone [Compound 20]
Plant response rating, Goosegrass [1]: 70
Plant response rating, Crabgrass, Large [2, 11]: 100
Plant response rating, Crabgrass, Large [2, 12]: 60
Plant response rating, Crabgrass, Large [2, 13]: 70
Plant response rating, Crabgrass, Large [2, 14]: 80
Crabgrass, Large plant response rating [2, 15]: 90
Plant response rating, Crabgrass, Large [2, 16]: 0
Plant response rating, Crabgrass, Large [2, 17]: 70
Crabgrass, Large plant response rating [2, 18]: 85
Plant response rating, Surinam Grass [3, 11]: 5
Plant response rating, Surinam Grass [3, 12]: 15
Plant response rating, Surinam Grass [3, 13]: 25
Plant response rating, Surinam Grass [3, 14]: 40
Surinam Grass plant response rating [3, 15]: 65
Plant response rating, Surinam Grass [3, 16]: 0
Plant response rating, Surinam Grass [3, 17]: 0
Surinam Grass plant response rating [3, 18]: 0
Plant response rating, Nutsedge, Yellow [4, 11]: 50
Plant response rating, Nutsedge, Yellow [4, 12]: 15
Plant response rating, Nutsedge, Yellow [4, 13]: 45
Plant response rating, Nutsedge, Yellow [4, 14]: 65
Nutsedge, Yellow plant response rating [4, 15]: 80
Plant response rating, Nutsedge, Yellow [4, 16]: 5
Plant response rating, Nutsedge, Yellow [4, 17]: 10
Nutsedge, Yellow plant response rating [4, 18]: 40
Plant response rating, Galium ([5]; 250 g ai/ha, 0 to 100 scale): 50
Plant response rating, Galium [5, 19]: 0
Plant response rating, Galium [5, 20]: 5
Galium plant response rating ([5]; 125 g ai/ha, 0 to 100 scale): 30
Plant response rating, Cocklebur [6, 11]: 100
Plant response rating, Cocklebur [6, 12]: 65
Plant response rating, Cocklebur [6, 13]: 80
Plant response rating, Cocklebur [6, 14]: 85
Cocklebur plant response rating [6, 15]: 100
Plant response rating, Cocklebur [6, 16]: 10
Plant response rating, Cocklebur [6, 17]: 10
Cocklebur plant response rating [6, 18]: 70
Plant response rating, Lambsquarters [7, 11]: 100
Plant response rating, Lambsquarters [7, 12]: 85
Plant response rating, Lambsquarters [7, 13]: 95
Plant response rating, Lambsquarters [7, 14]: 98
Lambsquarters plant response rating [7, 15]: 100
Plant response rating, Lambsquarters [7, 16]: 100
Lambsquarters plant response rating [7, 18]: 100
Plant response rating, Sunflower ([8]; 250 g ai/ha, 0 to 100 scale): 85
Plant response rating, Sunflower [8, 19]: 50
Plant response rating, Sunflower [8, 20]: 70
Sunflower plant response rating ([8]; 125 g ai/ha, 0 to 100 scale): 70
Plant response rating, Kochia (kochia (Kochia scoparia); [11]): 100
Plant response rating, Kochia (kochia (Kochia scoparia); [12]): 65
Plant response rating, Kochia (kochia (Kochia scoparia); [13]): 80
Plant response rating, Kochia (kochia (Kochia scoparia); [14]): 85
Kochia plant response rating (kochia (Kochia scoparia); [15]): 95
Plant response rating, Kochia (kochia (Kochia scoparia); [16]): 98
Kochia plant response rating (kochia (Kochia scoparia); [18]): 100
Plant response rating, Oat, Wild (wild oat (Avena fatua); [11]): 0
Plant response rating, Oat, Wild (wild oat (Avena fatua); [12]): 0
Plant response rating, Oat, Wild (wild oat (Avena fatua); [13]): 0
Plant response rating, Oat, Wild (wild oat (Avena fatua); [14]): 5
Oat, Wild plant response rating (wild oat (Avena fatua); [15]): 50
Plant response rating, Oat, Wild (wild oat (Avena fatua); [16]): 0
Plant response rating, Oat, Wild (wild oat (Avena fatua); [17]): 0
Oat, Wild plant response rating (wild oat (Avena fatua); [18]): 0
Plant response rating, Nightshade ([9]; 250 g ai/ha, 0 to 100 scale): 100
Plant response rating, Nightshade [9, 19]: 50
Nightshade plant response rating ([9]; 125 g ai/ha, 0 to 100 scale): 98
Plant response rating, Cupgrass, Woolly [10, 11]: 10
Plant response rating, Cupgrass, Woolly [10, 12]: 0
Plant response rating, Cupgrass, Woolly [10, 13]: 15
Plant response rating, Cupgrass, Woolly [10, 14]: 20
Cupgrass, Woolly plant response rating [10, 15]: 55
Plant response rating, Cupgrass, Woolly [10, 16]: 0
Plant response rating, Cupgrass, Woolly [10, 17]: 0
Cupgrass, Woolly plant response rating [10, 18]: 0
